# Laboratory results reported in patent US20260234351A1, “ANTIMICROBIAL POLYMER FOAMS COMPRISING A SYNERGISTIC BLEND OF COMPONENTS” (Cupron Performance Additives, Inc., priority 2023, published 2026).
# Test system: E. coli (ATCC 8739)
# Test: Zone of Inhibition (ZOI), sample pellets on agar
# Conditions: for diameter of the ZOI: pellets with 20 wt % cellulose binder (Tables 1 and 2)
# [1] = E. coli, 24 h incubation at 37° C.
# Experimental: Zone of Inhibition (ZOI). […] The cultures were streaked on Luria Agar (LB) plates and incubated overnight at 37° C. […] 50 μL of this stock suspension was spread homogeneously on a trypticase soy agar (TSA) plate (diameter 10 cm).
Substance,"Zone of Inhibition Diameter (mm) Avg (E. coli, 24 h incubation at 37° C., cellulose binder, average of 3 trials) [mm]",diameter of the ZOI [1],antimicrobial efficacy in the zone of inhibition testing (compound alone)
basic copper(II) carbonate [BCC],12,–,–
Zinc borate,–,No ZOI,no significant antimicrobial efficacy
molybdenum (VI) oxide [molybdenum oxide],–,19 mm,–
